# Experimental data taken from patent publication US12539292B2, “BRM targeting compounds and associated methods of use” (Arvinas Operations, Inc., priority 2018, dated 2026).
# Read-outs that look alike come from different tables or passages of the source.
# Target: T1, BRM (Homo sapiens, UniProt P51531)
# T1 construct: In-Cell Western Screen of BRM Degradation in SW1573 Cells; endogenous in cells; host or cells: SW1573
# Assay: In-cell Western screen of BRM degradation in SW1573 cells (Dmax and DC50)
# Type: cell-based
# Method in brief: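 SW1573 cells were treated with compound overnight (18-20 h; final DMSO 0.1%), then fixed in 4% PFA, permeabilized with Triton X-100 and blocked. BRM was detected by in-cell Western using 800 nm anti-rabbit and 680 nm anti-mouse secondaries, and Dmax and DC50 were derived from the LI-COR Odyssey signal.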
# [1] = BRM degradation, SW1573 cells, read-out: DC50
# [2] = BRM degradation, SW1573 cells, when tested at the top concentration of between 0.3 and 10 μM, read-out: Dmax (%) (% degraded)
# [3] = BRM degradation, SW1573 cells, Table 2D, read-out: **Dmax (%) (% degraded)
# [4] = BRM degradation, SW1573 cells, Table 2D, read-out: *DC50
# [5] = BRM degradation, SW1573 cells, read-out: Dmax (% degraded)
# T1 sequence (P51531 whole entry): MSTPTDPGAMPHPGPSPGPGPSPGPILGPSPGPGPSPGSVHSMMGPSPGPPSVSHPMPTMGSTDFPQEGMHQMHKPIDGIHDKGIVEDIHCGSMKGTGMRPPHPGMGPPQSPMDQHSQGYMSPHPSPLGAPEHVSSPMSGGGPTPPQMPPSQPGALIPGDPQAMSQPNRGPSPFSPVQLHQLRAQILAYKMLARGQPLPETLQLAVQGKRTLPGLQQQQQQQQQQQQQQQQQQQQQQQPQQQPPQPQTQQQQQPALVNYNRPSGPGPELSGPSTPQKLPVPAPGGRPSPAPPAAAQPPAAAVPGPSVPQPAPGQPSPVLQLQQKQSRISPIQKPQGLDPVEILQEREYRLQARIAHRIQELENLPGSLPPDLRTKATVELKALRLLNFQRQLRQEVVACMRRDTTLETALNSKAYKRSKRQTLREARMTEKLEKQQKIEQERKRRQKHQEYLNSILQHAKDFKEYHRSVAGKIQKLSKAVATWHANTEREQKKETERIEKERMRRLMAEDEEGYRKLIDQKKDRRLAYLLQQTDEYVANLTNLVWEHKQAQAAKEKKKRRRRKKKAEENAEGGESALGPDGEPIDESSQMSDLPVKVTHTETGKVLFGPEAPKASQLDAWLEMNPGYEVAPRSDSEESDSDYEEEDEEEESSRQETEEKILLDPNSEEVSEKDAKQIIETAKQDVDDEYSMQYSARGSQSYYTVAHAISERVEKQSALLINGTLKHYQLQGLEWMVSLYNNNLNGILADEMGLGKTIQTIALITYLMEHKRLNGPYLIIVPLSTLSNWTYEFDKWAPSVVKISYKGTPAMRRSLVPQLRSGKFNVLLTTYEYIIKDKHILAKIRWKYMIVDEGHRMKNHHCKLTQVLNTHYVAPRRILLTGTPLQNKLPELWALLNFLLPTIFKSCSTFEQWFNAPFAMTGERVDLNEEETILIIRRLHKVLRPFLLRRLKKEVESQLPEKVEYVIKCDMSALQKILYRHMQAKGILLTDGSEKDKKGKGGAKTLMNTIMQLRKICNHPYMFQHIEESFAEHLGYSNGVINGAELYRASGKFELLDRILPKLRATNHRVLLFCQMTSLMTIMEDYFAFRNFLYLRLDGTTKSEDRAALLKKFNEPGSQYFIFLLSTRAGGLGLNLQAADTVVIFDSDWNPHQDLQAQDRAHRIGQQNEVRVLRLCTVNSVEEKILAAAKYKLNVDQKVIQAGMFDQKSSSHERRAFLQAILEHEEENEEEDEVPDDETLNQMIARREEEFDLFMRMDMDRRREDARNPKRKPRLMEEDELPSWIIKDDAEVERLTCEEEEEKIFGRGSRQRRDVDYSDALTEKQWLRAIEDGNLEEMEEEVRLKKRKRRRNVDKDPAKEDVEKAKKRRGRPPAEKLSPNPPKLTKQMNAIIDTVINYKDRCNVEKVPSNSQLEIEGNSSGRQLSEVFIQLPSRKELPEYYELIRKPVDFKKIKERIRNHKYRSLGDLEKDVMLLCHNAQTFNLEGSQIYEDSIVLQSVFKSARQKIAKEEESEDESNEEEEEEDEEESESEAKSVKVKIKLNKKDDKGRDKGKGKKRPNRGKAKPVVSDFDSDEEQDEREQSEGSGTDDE
smiles,measurement,setting,value
"Cc1ncsc1-c1ccc(C(CCCP(=O)(O)O)NC(=O)[C@@H]2C[C@@H](O)CN2C(=O)[C@H](c2cc(OCCN3CCC(O[C@H]4C[C@H](Oc5cc(N6C7CCC6CN(c6cc(-c8ccccc8O)nnc6N)C7)ccn5)C4)CC3)no2)C(C)C)cc1 (stereo partly drawn) [compound 701, (4-((2S,4R)-1-((2S)-2-(3-(2-(4-((1r,3S)-3-((4-(3-(3-amino-6-(2-hydroxyphenyl)pyridazin-4-yl)-3,8-diazabicyclo[3.2.1]octan-8-yl)pyridin-2-yl)oxy)cyclobutoxy)piperidin-1-yl)ethoxy)isoxazol-5-yl)-3-methylbutanoyl)-4-hydroxypyrrolidine-2-carboxamido)-4-(4-(4-methylthiazol-5-yl)phenyl)butyl)phosphonic acid]",DC50,"BRM degradation, SW1573 cells",> 30 nM
"Cc1ncsc1-c1ccc([C@H](NC(=O)[C@@H]2C[C@@H](O)CN2C(=O)[C@@H](c2cc(OCCN3CCC(O[C@H]4C[C@H](Oc5cc(N6C7CCC6CN(c6cc(-c8ccccc8O)nnc6N)C7)ccn5)C4)CC3)no2)C(C)C)C(F)F)cn1 [compound 243, (2S,4R)-1-((2R)-2-(3-(2-(4-((1r,3R)-3-((4-(3-(3-amino-6-(2-hydroxyphenyl)pyridazin-4-yl)-3,8-diazabicyclo[3.2.1]octan-8-yl)pyridin-2-yl)oxy)cyclobutoxy)piperidin-1-yl)ethoxy)isoxazol-5-yl)-3-methylbutanoyl)-N-((S)-2,2-difluoro-1-(6-(4-methylthiazol-5-yl)pyridin-3-yl)ethyl)-4-hydroxypyrrolidine-2-carboxamide]",DC50,[1],< 2.5 nM
same,Dmax,"BRM degradation, SW1573 cells, tested at the top concentration of between 0.3 and 10 μM, read-out: Dmax (%) (% degraded)",> 75%
"Cc1ncsc1-c1ccc(CNC(=O)[C@@H]2C[C@@H](O)CN2C(=O)[C@@H](NC(=O)COCCCc2ccc(C(C)n3cc(-c4cc(-c5ccccc5O)nnc4N)cn3)cc2)C(C)(C)C)cc1 (stereo partly drawn) [compound 33, (2S,4R)-1-[(2S)-2-(2-[3-[4-(1-[4-[3-amino-6-(2-hydroxyphenyl)pyridazin-4-yl]-1H-pyrazol-1-yl]ethyl)phenyl]propoxy]acetamido)-3,3-dimethylbutanoyl]-4-hydroxy-N-[[4-(4-methyl-1,3-thiazol-5-yl)phenyl]methyl]pyrrolidine-2-carboxamide]",DC50,[1],2.5 to 10 nM
same,Dmax,[2],> 75%
"Cc1ncsc1-c1ccc([C@H](C)NC(=O)[C@@H]2C[C@@H](O)CN2C(=O)[C@H](c2cc(OCCC3CCN(C[C@H]4C[C@H](N5CCC(CN6CCOC7(CCN(c8cc(-c9ccccc9O)nnc8N)CC7)C6)CC5)C4)CC3)no2)C(C)C)cc1 [compound 597, (2S,4R)-1-((S)-2-(3-(2-(1-(((1r,3S)-3-(4-((9-(3-amino-6-(2-hydroxyphenyl)pyridazin-4-yl)-1-oxa-4,9-diazaspiro[5.5]undecan-4-yl)methyl)piperidin-1-yl)cyclobutyl)methyl)piperidin-4-yl)ethoxy)isoxazol-5-yl)-3-methylbutanoyl)-4-hydroxy-N-((S)-1-(4-(4-methylthiazol-5-yl)phenyl)ethyl)pyrrolidine-2-carboxamide]",Dmax,[3],> 75%
same,DC50,[4],10 to 30 nM
"Cc1ncsc1-c1ccc([C@H](C)NC(=O)[C@@H]2C[C@@H](O)CN2C(=O)[C@@H](c2cc(N3CCC(CN4CCC(O[C@H]5C[C@H](C#CC(C)N6CCOC7(CCN(c8cc(-c9ccccc9O)nnc8N)CC7)C6)C5)CC4)CC3)no2)C(C)C)cc1 (stereo partly drawn) [compound 707, (2S,4R)-1-((2R)-2-(3-(4-((4-((1r,3r)-3-(3-(9-(3-amino-6-(2-hydroxyphenyl)pyridazin-4-yl)-1-oxa-4,9-diazaspiro[5.5]undecan-4-yl)but-1-yn-1-yl)cyclobutoxy)piperidin-1-yl)methyl)piperidin-1-yl)isoxazol-5-yl)-3-methylbutanoyl)-4-hydroxy-N-((S)-1-(4-(4-methylthiazol-5-yl)phenyl)ethyl)pyrrolidine-2-carboxamide]",DC50,[1],< 2.5 nM
same,Dmax,[5],> 75%
"Cc1ncsc1-c1ccc([C@H](C)NC(=O)[C@@H]2C[C@@H](O)CN2C(=O)[C@@H](c2cc(OCCN3CCC(OC4CN(c5cc(N6C7CCC6CN(c6cc(-c8ccccc8O)nnc6N)C7)ccn5)C4)CC3)no2)C(C)C)cc1 [compound 355, (2S,4R)-1-((2R)-2-(3-(2-(4-((1-(4-(3-(3-amino-6-(2-hydroxyphenyl)pyridazin-4-yl)-3,8-diazabicyclo[3.2.1]octan-8-yl)pyridin-2-yl)azetidin-3-yl)oxy)piperidin-1-yl)ethoxy)isoxazol-5-yl)-3-methylbutanoyl)-4-hydroxy-N-((S)-1-(4-(4-methylthiazol-5-yl)phenyl)ethyl)pyrrolidine-2-carboxamide]",Dmax,"SW1573, % degraded, when tested at the top concentration of between 0.3 and 10 μM, read-out: BRM Dmax (%)",> 75%
same,DC50,"target protein degradation, read-out: BRM DC50",< 2.5 nM
"Cc1ncsc1-c1ccc([C@H](C)NC(=O)[C@@H]2C[C@@H](O)CN2C(=O)[C@H](c2onc(OCCN3CCC(O[C@H]4C[C@H](Oc5cc(N6C7CCC6CN(c6cc(-c8ccccc8O)nnc6N)C7)ccn5)C4)CC3)c2F)C(C)C)cn1 [compound 269, (2S,4R)-1-((2S)-2-(3-(2-(4-((1r,3S)-3-((4-(3-(3-amino-6-(2-hydroxyphenyl)pyridazin-4-yl)-3,8-diazabicyclo[3.2.1]octan-8-yl)pyridin-2-yl)oxy)cyclobutoxy)piperidin-1-yl)ethoxy)-4-fluoroisoxazol-5-yl)-3-methylbutanoyl)-4-hydroxy-N-((S)-1-(6-(4-methylthiazol-5-yl)pyridin-3-yl)ethyl)pyrrolidine-2-carboxamide]",DC50,[1],> 30 nM
"Cc1ncsc1-c1ccc([C@H](C)NC(=O)[C@@H]2C[C@@H](O)CN2C(=O)[C@H](c2cc(OCCN3CCC(O[C@H]4C[C@H](Oc5cc(N6C7CCC6CN(c6cc(-c8ccccc8)nnc6N)C7)ccn5)C4)CC3)no2)C(C)C)cc1 [compound 536, (2S,4R)-1-((2S)-2-(3-(2-(4-((1r,3S)-3-((4-(3-(3-amino-6-phenylpyridazin-4-yl)-3,8-diazabicyclo[3.2.1]octan-8-yl)pyridin-2-yl)oxy)cyclobutoxy)piperidin-1-yl)ethoxy)isoxazol-5-yl)-3-methylbutanoyl)-4-hydroxy-N-((S)-1-(4-(4-methylthiazol-5-yl)phenyl)ethyl)pyrrolidine-2-carboxamide]",DC50,"BRM degradation, SW1573 cells, Table 2D",> 30 nM
"Cc1ncsc1-c1ccc([C@H](C)NC(=O)[C@@H]2C[C@@H](O)CN2C(=O)[C@@H](c2cc(N3CCC(CN4CCC(COc5cc(N6C7CCC6CN(c6cc(-c8ccccc8O)nnc6N)C7)ccn5)CC4)CC3)no2)C(C)C)cc1 [compound 603, (2S,4R)-1-((2R)-2-(3-(4-((4-(((4-(3-(3-amino-6-(2-hydroxyphenyl)pyridazin-4-yl)-3,8-diazabicyclo[3.2.1]octan-8-yl)pyridin-2-yl)oxy)methyl)piperidin-1-yl)methyl)piperidin-1-yl)isoxazol-5-yl)-3-methylbutanoyl)-4-hydroxy-N-((S)-1-(4-(4-methylthiazol-5-yl)phenyl)ethyl)pyrrolidine-2-carboxamide]",Dmax,[3],> 75%
same,DC50,[4],< 2.5 nM
"Cc1ncsc1-c1ccc([C@H](C)NC(=O)[C@@H]2C[C@@H](O)CN2C(=O)[C@@H](NC(=O)CN2CCC(OC3CC(Oc4cc(N5C6CC[C@@H]5CN(c5cc(-c7ccccc7O)nnc5N)C6)ccn4)C3)CC2)C(C)(C)C)cc1 (stereo partly drawn) [compound 520, (2S,4R)-1-((2S)-2-(2-(4-((1r,3S)-3-((4-(3-(3-amino-6-(2-hydroxyphenyl)pyridazin-4-yl)-3,8-diazabicyclo[3.2.1]octan-8-yl)pyridin-2-yl)oxy)cyclobutoxy)pipcridin-1-yl)acetamido)-3,3-dimethylbutanoyl)-4-hydroxy-N-((S)-1-(4-(4-methylthiazol-5-yl)phenyl)ethyl)pyrrolidine-2-carboxamide]",BRM Dmax (%),"% degraded, when tested at the top concentration of between 0.3 and 10 μM",A (A > 75)
same,DC50,"BRM degradation, read-out: BRM DC50",< 2.5 nM
"Cc1ncsc1-c1ccc([C@H](CO)NC(=O)[C@@H]2C[C@@H](O)CN2C(=O)[C@@H](c2cc(OCCN3CCN(CCOc4cc(N5C6CCC5CN(c5cc(-c7ccccc7O)nnc5N)C6)ccn4)CC3)no2)C(C)C)cc1 [compound 100, (2S,4R)-1-((2R)-2-(3-(2-(4-(2-((4-(3-(3-amino-6-(2-hydroxyphenyl)pyridazin-4-yl)-3,8-diazabicyclo[3.2.1]octan-8-yl)pyridin-2-yl)oxy)ethyl)piperazin-1-yl)ethoxy)isoxazol-5-yl)-3-methylbutanoyl)-4-hydroxy-N-((R)-2-hydroxy-1-(4-(4-methylthiazol-5-yl)phenyl)ethyl)pyrrolidine-2-carboxamide]",DC50,[1],< 2.5 nM
same,Dmax,[2],> 75%
"Cc1ncsc1-c1ccc([C@H](C)NC(=O)[C@@H]2C[C@@H](O)CN2C(=O)[C@@H](c2cc(N3CCC(O)(CN4CCC(O[C@H]5C[C@H](Oc6cc(N7C8CCC7CN(c7cc(-c9ccccc9O)nnc7N)C8)ccn6)C5)CC4)CC3)no2)C(C)C)cc1 [compound 645, (2S,4R)-1-((2R)-2-(3-(4-((4-((1r,3r)-3-((4-(3-(3-amino-6-(2-hydroxyphenyl)pyridazin-4-yl)-3,8-diazabicyclo[3.2.1]octan-8-yl)pyridin-2-yl)oxy)cyclobutoxy)piperidin-1-yl)methyl)-4-hydroxypiperidin-1-yl)isoxazol-5-yl)-3-methylbutanoyl)-4-hydroxy-N-((S)-1-(4-(4-methylthiazol-5-yl)phenyl)ethyl)pyrrolidine-2-carboxamide]",DC50,[1],< 2.5 nM
same,Dmax,[5],> 75%
